According to patent publication US20060194698A1, “Use of herbs as a delivery system for bioactive phytochemicals” (priority 2003, published 2006):

Tests used:
Sclerotinia = test: Essential oil components / ground herbage against Sclerotinia and its sclerotia; type: cell-based; details: pure essential oil component
Alternaria = test: Essential oil components against Alternaria growth (saturated cotton swab suspended above culture); type: cell-based; details: pure essential oil component
Procedure: Antifungal activity of the essential oil components against Rhizoctonia and Pythium will be tested by means previously used to evaluate Alternaria growth. Briefly, a cotton swab saturated with the oil is suspended above a culture of the test pathogen. Fungal dry weight is then determined. Appropriate controls are performed.

SMILES | activity against the sclerotia of Sclerotinia (Sclerotinia) | growth of Sclerotinia (Sclerotinia) | growth of Alternaria (Alternaria)
Cc1ccc(C(C)C)cc1O [carvacrol] | inhibitory activity | completely inhibit growth | completely inhibit growth
Cc1ccc(C(C)C)cc1 [cymene, p-cymene] |  |  | reduce the growth
CC(C)=CCC/C(C)=C/CO [geraniol] | inhibitory activity | completely inhibit growth | completely inhibit growth
C=C(C)[C@H]1CC=C(C)CC1 [limonene] |  |  | inhibit the growth of Alternaria, but not as effectively as cymene
Cc1ccc(C(C)C)c(O)c1 [thymol] | inhibitory activity | completely inhibit growth | completely inhibit growth
